Source: patent publication US20110015278A1, “PHYTOL AS A CHOLESTEROL LOWERING AGENT” (priority 2008, published 2011)

Columns and labels:
3T3-L1 cells = 3T3-L1 cells (Schluter et al., 2002); cited from earlier work
PPARα = target: T1, PPARα (Homo sapiens, UniProt Q07869); details: cited from earlier work
T1 sequence (Q07869 1-468): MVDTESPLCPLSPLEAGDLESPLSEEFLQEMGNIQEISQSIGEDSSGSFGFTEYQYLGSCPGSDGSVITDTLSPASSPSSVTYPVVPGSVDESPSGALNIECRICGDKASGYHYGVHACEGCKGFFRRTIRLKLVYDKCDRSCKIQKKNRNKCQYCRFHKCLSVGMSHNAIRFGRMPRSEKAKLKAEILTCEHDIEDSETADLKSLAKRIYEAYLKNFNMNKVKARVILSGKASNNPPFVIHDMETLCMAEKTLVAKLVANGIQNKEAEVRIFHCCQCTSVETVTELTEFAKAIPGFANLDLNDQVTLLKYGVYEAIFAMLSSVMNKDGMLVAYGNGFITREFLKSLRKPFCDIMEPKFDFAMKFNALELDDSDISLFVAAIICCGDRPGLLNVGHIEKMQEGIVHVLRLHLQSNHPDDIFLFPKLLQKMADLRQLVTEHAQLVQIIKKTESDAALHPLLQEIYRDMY

[1] = tested on: mouse teratogenesis models; details: mouse teratogenesis models (Arnhold et al., 2002); cited from earlier work
[2] = tested on: RXR (retinoid X receptor); details: cited from earlier work
hepatocytes = details: EP 1177789; cited from earlier work
rats [3] = details: rats fed 0.5% phytol in the diet for 15 months (Steinberg et al., 1966); cited from earlier work
healthy rats [4] = experiment: Phytol treatment healthy rats, serum triglycerides and cholesterol (Example 1); format: in vivo, rat; details: 1 weight percentage phytol mixed in the food, after 4 days, vs untreated rats
Procedure: FIG. 1 is a graph comparing the triglyceride and cholesterol lowering effect of phytol in rats. The rats were treated with oral administration of phytol at 125 mg daily.
(§1) Triglyceride and cholesterol lowering effect after oral administration of phytol was validated in serum from healthy rats treated with phytol. Phytol (FIG. 1; black bars) was administrated to rats at 1 weight percentage phytol mixed in the food. Analysis was made in comparison with control (FIG. 1; white bars) untreated rats.

[5] = one Refsum's disease patient, 72 mg tritium labelled phytol orally after overnight fasting (Kahlke & Wagener, 1966); cited from earlier work
humans = details: 10% concentration (Kligman, 1966; Kligman & Epstein, 1975); cited from earlier work
[6] = cited from earlier work
[7] = cited from earlier work; remark: listed apart in the source
rabbits = details: cited from earlier work
healthy pigs [8] = experiment: Phytol treatment healthy pigs, increasing dose, serum triglycerides (Example 3); format: in vivo, pig; details: vs corn oil control
Procedure: FIG. 3 is a graph showing the effect of increased dose of phytol in pigs. The pigs were treated with oral administration of 1.25; 2.5; 5 and 10 g phytol daily for two weeks, respectively.
Triglyceride lowering effect after oral administration of phytol was validated in serum from healthy pigs treated with phytol. Phytol (FIG. 3.; black circles) was administrated to pigs at 1.25, 2.5, 5 and 10 g phytol daily. Analysis was made in comparison with control (FIG. 3.; open circles) pigs given corn oil as control.

adult mice = details: cited from earlier work
rats [9] = details: cited from earlier work
healthy pigs [10] = experiment: Phytol treatment healthy pigs, serum triglycerides and cholesterol (Example 2); format: in vivo, pig; details: 10 g phytol daily mixed in the food, after 1 wk, vs untreated pigs
Procedure: FIG. 2 is a graph comparing the triglyceride and cholesterol lowering effect of phytol in pigs. The pigs were treated with oral administration of phytol at 10 g daily.
Triglyceride and cholesterol lowering effect after oral administration of phytol was validated in serum from healthy pigs treated with phytol. Phytol (FIG. 2.; black bars) was administrated to pigs at 10 g phytol daily mixed in the food. Analysis was made in comparison with control (FIG. 2.; white bars) untreated pigs.

healthy rats [11] = experiment: Phytol treatment healthy rats, 400 mg every second day, serum cholesterol and LDL-cholesterol (Example 7); format: in vivo, rat; details: 400 mg phytol every second day, after three weeks, vs untreated rats
Procedure: FIG. 7 is a graph comparing the cholesterol and LDL-Cholesterol lowering effect of Phytol in rats. The rats were treated with oral administration of phytol at 400 mg every second day for three weeks.
Cholesterol and LDL-Cholesterol lowering effect after oral administration of phytol was validated in serum from healthy rats treated with phytol. Phytol (FIG. 7; black bars) was administrated to rats at 400 mg phytol administered every second day for three weeks. Analysis was made in comparison with control (FIG. 7; white bars) untreated rats.

healthy mice = experiment: Phytol treatment healthy mice, serum cholesterol and LDL-cholesterol (Example 6); format: in vivo, mouse; details: 1 weight percentage phytol in the food, after thirty days, vs untreated mice
Procedure: FIG. 6 is a graph comparing the cholesterol and LDL-Cholesterol lowering effect of phytol in mice. The mice were treated with oral administration of phytol at 1% weight evenly distributed in powdered chow.
as §1, with “Cholesterol” for “Triglyceride”, “LDL-Cholesterol” for “cholesterol”, “mice” for “rats”, “6;” for “1;”, “food for thirty days.” for “food.”, “mice.” for “rats.”

obese (ob/ob) mice = experiment: Phytol treatment obese (ob/ob) mice, serum cholesterol (Example 4); format: in vivo, mouse; details: 0.75 weight percentage phytol mixed in the food, during 5 weeks, vs untreated mice, p<0.001
Procedure: FIG. 4 is a graph comparing the cholesterol lowering effect of phytol in obese ob/ob mice. The mice were treated with oral administration of phytol 0.75% weight evenly distributed in powdered chow.
Cholesterol lowering effect after oral administration of phytol was validated in serum from obese (ob/ob) mice treated with phytol. Phytol (FIG. 4; black circles) was administrated to the mice at 0.75 weight percentage phytol mixed in the food. Analysis was made in comparison with control (FIG. 4; open circles) untreated mice.

healthy rats [12] = experiment: Phytol treatment healthy rats, serum cholesterol and LDL-cholesterol, thirty days (Example 5); format: in vivo, rat; details: 1 weight percentage phytol in the food
Procedure: FIG. 5 is a graph comparing the cholesterol and LDL-Cholesterol lowering effect of phytol in rats. The rats were treated with oral administration of phytol at 1% weight evenly distributed in powdered chow.
as §1, with “Cholesterol” for “Triglyceride”, “LDL-Cholesterol” for “cholesterol”, “5;” for “1;”, “food for thirty days.” for “food.”

[13] = phytol given as chlorophyll; cited from earlier work
[14] = after three weeks of phytol feeding
[15] = after ten days, vs untreated rats, p<0.0001

CC(C)CCCC(C)CCCC(C)CCCC(C)CC(=O)O (stereo not drawn) [phytanic acid]
AP2 mRNA (3T3-L1 cells): activates AP2 mRNA | activation of PPARα in vitro (postulated) (PPARα): activate | vitamin A (retinol) induced teratogenic effects [1]: able to prevent | RXR (retinoid X receptor) activator ([2]; Kitareewan et al., 1996): activator | activation of RXR in vitro (postulated) ([2]; in vitro): activate | transcription of the genes for glucose transporters and glucokinase (hepatocytes): increase and stimulate the transcription | uptake of glucose in hepatocytes (hepatocytes): increased uptake of glucose

C/C(=C\CO)CCCC(C)CCCC(C)CCCC(C)C (stereo not drawn) [phytol, 3,7,11,15-Tetramethyl-hexadec-2-en-1-ol]
growth inhibition or toxicity (rats [3]): No evidence of growth inhibition or toxicity | serum levels of cholesterol (healthy rats [4]; p<0.001): significantly reduced | serum levels of triglycerides (healthy rats [4]; p<0.05): significantly reduced | principal carriers of phytol in plasma [5]: Plasma cholesterol esters and triglycerides | irritation (humans): no irritation | serum and liver values of accumulated phytol after phytol is subtracted from the food ([6]; after withdrawal of dietary phytol): drops rapidly | distribution to the livers ([6]; at the 1% level in the food): no phytol was distributed to the livers | accumulation in tissues ([6]; dietary phytol at doses 1-5% in the food, rat, mouse, rabbit and chinchillas (Steinberg et al., 1966)): accumulation in both liver and serum | capacity to absorb into the intestinal lymphatic ([7]; rat, oral administration (Baxter & Steinberg, 1967)): ≤ 0.2 g phytol/kg bodyweight | time of transportation into the intestinal lymphatic after administration ([7]; rat, oral administration): ≤ 20 h | absorption when mixed with bile salts prior to administration ([7]; rat, oral, phytol mixed with bile salts): absorption increases | orally administered phytol absorbed ([7]; rat, oral): More than 50% | share of absorbed phytol absorbed via the intestinal lymphatics ([7]; rat, oral): more than 70% | absorption and degradation ([7]; rats fed 5% phytol (Mize et al., 1966)): capacity to rapidly absorb and degrade phytol | absorbed, of administered dose ([7]; rats, oral): 30-66 % of administered dose | vitamin A (retinol) induced teratogenic effects [1]: able to prevent | acute dermal LD50 (rabbits): exceed 5 g/kg | serum levels of triglycerides (healthy pigs [8]; 2.5 g phytol per day oral, p<0.05): significantly reduced | serum levels of triglycerides (healthy pigs [8]; 5 g phytol per day oral, p<0.01): significantly reduced | serum levels of triglycerides (healthy pigs [8]; 10 g phytol per day oral, p<0.001): significantly reduced | serum cholesterol levels (adult mice; [14]): remained unaffected | serum triglyceride levels (adult mice; [14]): decreased | hepatic peroxisomes (adult mice; enhanced supply of phytol in the diet (Van den Branden et al., 1986)): proliferation of hepatic peroxisomes | acute oral LD50 (rats [9]): exceed 5 g/kg | serum levels of triglycerides (healthy pigs [10]; p<0.01): significantly reduced | serum levels of cholesterol (healthy pigs [10]; p<0.05): significantly reduced | serum LDL-cholesterol (healthy rats [11]; p<0.001): significantly reduced | serum cholesterol (healthy rats [11]; p<0.05): significantly reduced | serum LDL-cholesterol (healthy mice; p<0.01): significantly reduced | serum cholesterol (healthy mice; p=0.05): significantly reduced | serum levels of cholesterol (obese (ob/ob) mice): significantly reduced | serum LDL-cholesterol (healthy rats [12]; [15]): significantly reduced | serum cholesterol (healthy rats [12]; [15]): significantly reduced | serum LDL-cholesterol (healthy rats [12]; after thirty days): even more reduced

chlorophyll
absorption of phytol compared to when given as pure phytol [13]: much lower
